Results from article PMC4703387, “Identification of the Calmodulin-Binding Domains of Fas Death Receptor” (PLoS ONE, 2016).
Where no end group is shown, it is not given here.

Legend:
Ca^2+/CaM [1] = target: T1, Ca^2+/CaM (Homo sapiens, UniProt P0DP23); experiment: Circular dichroism (CD) spectroscopy; assay type: physicochemical; details: 25°C, 10 mM HEPES (pH 7), 50 mM KCl, 2.5 mM CaCl2
T1 construct: made in house
Procedure: CD spectra were acquired on a Jasco J815 spectropolarimeter at 25°C from 260 to 185 nm. Scanning rate was set to 50 nm/min. Loading concentrations were ~16–20 μM for free peptides, 18 μM for free Ca^2+/CaM and 10 μM for the complexes in a buffer containing 10 mM HEPES (pH 7), 50 mM KCl, and 2.5 mM CaCl2. The background signal from the buffer solution was subtracted from each spectrum. Ca^2+/CaM complexes with peptides were run on gel filtration column (as described above) to ensure high purity and homogeneity prior to collection of the CD spectra.

Ca^2+/CaM [2] = target: T1, Ca^2+/CaM; experiment: NMR (HSQC, 3D 15N-edited HSQC-NOESY, TALOS+) of 15N-/13C-labeled Fas-Pep2; assay type: physicochemical
Procedure: (§1) NMR data were collected at 35°C on a Bruker Avance II (700 MHz ^1H) spectrometer equipped with a cryogenic triple-resonance probe, processed with NMRPIPE [35] and analyzed with NMRVIEW [36] or CCPN Analysis. […] For signal assignments of the complexes, ^13C-, ^15N-, or ^13C-/^15N-labeled Ca^2+/CaM at ~400–500 μM was mixed with unlabeled Fas-Pep1 (in 100% DMSO-d6) or Fas-Pep2 at 1.5:1 peptide:Ca^2+/CaM. […] The backbone atom resonances of Ca^2+/CaM complexes with Fas-Pep1 and Fas-Pep2 were assigned using HNCA, HN(CO)CA, HNCACB, HNCO, HN(CO)CACB and ^15N-edited NOESY-HSQC and TOCSY-HSQC experiments. These experiments have been also collected on ^15N-, or ^13C-/^15N-labeled Fas-Pep2 in complex with unlabeled Ca^2+/CaM to confirm the α-helical character of Fas-Pep2 when bound to Ca^2+/CaM. The chemical shifts of Ca^2+/CaM-bound Fas-Pep2 were used to predict its order parameters and secondary structure content in TALOS+.[38] Combined ^1H-^15N chemical shift changes were calculated as ΔδHN = [(ΔδH)^2+(ΔδN/5)^2]^1/2, where ΔδH and ΔδN are the ^1H and ^15N chemical shift changes, respectively. Kd values were calculated by non-linear least-square fitting algorithm in Origin software (OriginLab, Northampton, MA) using the equation: ΔδHN=ΔδHN^max((Kd+L0+P0)−((Kd+L0+P0)^2−4*P0*L0)^0.5)/(2*P0) where ΔδHN^max is the chemical shift change between complex and free protein, L0 total concentration of ligand, and P0 total concentration of protein.
Far-UV CD spectra of Ca^2+/CaM, Fas-Pep1, Fas-Pep2 and their complexes have been obtained to determine whether formation of the complexes induce any major changes in the secondary structures of the peptides and/or Ca^2+/CaM protein. […] The CD spectra of the complexes are similar to those of Ca^2+/CaM with features distinctive of an α-helical type. Relatively minor changes are observed in the CD signal of Ca^2+/CaM upon binding to FasDD peptides. […] Induction of the α-helical character of Fas-Pep2 upon binding to Ca^2+/CaM has been confirmed by NMR spectroscopy. […]

Ca^2+/CaM [3] = target: T1, Ca^2+/CaM; experiment: 2D 1H-13C HMQC of 13C-labeled Ca^2+/CaM methionine methyl groups; assay type: binding
Source text: In the second approach, we assessed the role of hydrophobic surfaces located on the N- and C-terminal lobes of Ca^2+/CaM. These hydrophobic surfaces, which contribute to the flexibility and function of Ca^2+/CaM, are only formed when Ca^2+ is bound.[24] Ca^2+ binding induces a helical rearrangement, leading to exposure of eight methionine (Met) residues.[46, 47] Met residues are essential for the unique promiscuous binding behavior of Ca^2+/CaM to target proteins.[47] The methyl groups of Met residues are useful “NMR reporters” and widely used to probe for target binding.[34, 42, 47–49] Five Met residues (36, 51, 71, 72 and 76) are located in the N-terminal lobe and four (109, 124, 144, and 145) are located within the hydrophobic patch in the C-terminal lobe (Fig 8A). To assess whether the N- and C-terminal hydrophobic surfaces contribute to the binding of FasDD peptides, we collected 2D ^1H-^13C HMQC data on a uniformly ^13C-labeled Ca^2+/CaM sample as titrated with Fas-Pep1 or Fas-Pep2. Addition of a substoichiometric amount of Fas-Pep1 (0.5:1 peptide:Ca^2+/CaM) led to a decrease in the intensity of ^1H-^13C signals of M51, M71, M72, M109, M124 and M145 (Fig 8B, upper panel). Minimal or no chemical shift changes have been observed for signals corresponding to M76 and M144. Further addition of Fas-Pep1 led to appearance of new signals (Fig 8B). […]

Ca^2+/CaM-N = target: T2, Ca^2+/CaM-N (Homo sapiens, UniProt P0DP23); experiment: NMR titration (2D 1H-15N HSQC) of isolated N-terminal lobe; assay type: binding; details: 1H-15N HSQC titration
T2 construct: ^15N-labled samples of the isolated Ca^2+/CaM-N and Ca^2+/CaM-C domains; made in house
Procedure: as §1, with “The chemical shifts of Ca^2+/CaM-bound Fas-Pep2 were used to predict its order parameters and secondary structure content in TALOS+.[38]” left out, “protein. […]” for “protein.”

- secondary structure of free peptide/protein (Ca^2+/CaM [1]; far-UV CD, ~16–20 μM peptide, 18 μM Ca^2+/CaM): random coil
- CSPs on Ca^2+/CaM-N (Ca^2+/CaM-N): significant CSPs for numerous residues
Sequence: VQDTAEQKVQLLRNWHQLHGKKEAYDTLIKDLKKANLC [Fas-Pep2]
- change in CD signal at 208 and 222 nm of Ca^2+/CaM on peptide binding (Ca^2+/CaM [1]; complex 10 μM): An increase in the intensity of the CD signal at 208 and 222 nm
- conformation when bound to Ca^2+/CaM (NOESY) (Ca^2+/CaM [2]; 3D 15N-edited HSQC-NOESY): adopts an α-helical conformation upon binding to CaM
- conformation of free peptide (NMR) (Ca^2+/CaM [2]; 15N-Fas-Pep2, 1H-15N HSQC, 35°C, pH 7.0): lack of ordered structure
- conformation when bound to Ca^2+/CaM (chemical shift index, TALOS+) (Ca^2+/CaM [2]; prediction from measured chemical shifts): adopts an α-helical conformation upon binding to Ca^2+/CaM
- CSPs of Met resonances on binding (Ca^2+/CaM [3]): Notable CSPs are also observed in all of the ^1H-^13C resonances of Met residues
